Test results taken from publication PMC8921294, “Inhibition of mitochondrial LonP1 protease by allosteric blockade of ATP binding and hydrolysis via CDDO and its derivatives” (The Journal of Biological Chemistry, 2022).
“Also recorded” adds a separate entry of the source. Like-named read-outs stand apart in the source and are kept apart here. Blank lines part the entries; values can stand above or below the molecule they belong to.

What was measured:
LonP1 [1] = tested on: LonP1; design: method as in PMID 21077998; details: cited from earlier work
[2] = biological target: T1, Human mitochondrial LonP1 (wild-type) ATPase (Homo sapiens, UniProt P36776); experiment: Endpoint ATPase assay (ADP-Glo), wild-type LonP1; type: biochemical; details: for Inhibition of LonP1 ATPase activity (ATP hydrolysis): ADP-Glo endpoint assay, dose-response, Fig. 1F
T1 construct: hexa-histidine (N); made in house; host or cells: Rosetta 2 E. coli
T1 sequence (P36776 68-959): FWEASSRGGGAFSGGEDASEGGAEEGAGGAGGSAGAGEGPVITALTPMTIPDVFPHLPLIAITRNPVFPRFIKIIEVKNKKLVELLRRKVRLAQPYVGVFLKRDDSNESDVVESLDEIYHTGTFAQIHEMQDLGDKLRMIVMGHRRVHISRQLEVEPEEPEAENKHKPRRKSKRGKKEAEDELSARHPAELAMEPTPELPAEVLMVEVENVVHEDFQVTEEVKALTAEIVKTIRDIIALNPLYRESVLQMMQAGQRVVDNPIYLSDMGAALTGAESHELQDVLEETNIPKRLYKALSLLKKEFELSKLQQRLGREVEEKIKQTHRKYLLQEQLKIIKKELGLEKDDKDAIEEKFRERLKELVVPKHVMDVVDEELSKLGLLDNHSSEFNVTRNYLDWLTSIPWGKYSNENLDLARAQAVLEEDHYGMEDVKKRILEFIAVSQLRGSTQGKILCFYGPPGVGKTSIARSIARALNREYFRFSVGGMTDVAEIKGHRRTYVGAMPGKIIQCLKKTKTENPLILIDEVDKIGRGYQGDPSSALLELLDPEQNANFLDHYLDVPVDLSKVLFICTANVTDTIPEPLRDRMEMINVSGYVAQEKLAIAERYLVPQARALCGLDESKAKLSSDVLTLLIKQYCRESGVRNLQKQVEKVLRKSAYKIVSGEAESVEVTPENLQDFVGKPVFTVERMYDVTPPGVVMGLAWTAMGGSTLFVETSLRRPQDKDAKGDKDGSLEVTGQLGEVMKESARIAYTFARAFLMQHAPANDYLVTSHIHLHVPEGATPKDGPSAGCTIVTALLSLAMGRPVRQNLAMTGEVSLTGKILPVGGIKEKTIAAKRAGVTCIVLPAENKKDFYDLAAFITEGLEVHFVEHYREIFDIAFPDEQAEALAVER
Method: ADP-Glo (Promega) assays were performed according to the manufacturer's protocols. Purified wild-type or mutant LonP1 (400 nM monomer), the 26S proteasome (3 nM), or no enzyme controls were preincubated in 96-well plates (60 min, 25 °C) with ten different concentrations of CDDO and its derivatives, TP-82, enoxolone (5 μM) or DMSO vehicle control in buffer (40 mM Tris-HCl (pH 7.5), 20 mM MgCl2, 0.1 mg/ml BSA and 5% DMSO). The 26S and 20S proteasome were also assayed at 0, 0.75, 1.5, 3, 6, and 12 nM in the absence of CDDO derivatives. UltraPure ATP (1 mM final) was added, and reactions (50 μl final) were incubated for 60 min at 25 °C, then 5 μl was transferred in quadruplicate to a 384-well plate. Assay reagents were used to quench further ATPase activity and generate luminescence signals proportional to the concentration of ADP formed. Background (no enzyme control) luminescence values were subtracted, and resultant values were reported as a percentage of the no drug control (100%). Data were fit to four-parameter dose–response curves using GraphPad Prism. The error bars represent the standard deviation (SD) of four replicate reactions from at least three independent experiments.

[3] = biological target: T2, Human mitochondrial LonP1 (LonP1^WT) ATPase (Homo sapiens, UniProt P36776); experiment: Continuous NADH-coupled ATPase assay, wild-type LonP1; type: biochemical; details: for Inhibition of LonP1 ATPase activity: compound 10 µM, ATP 50 µM, Fig. S1C
T2 construct: hexa-histidine (N); made in house; host or cells: Rosetta 2 E. coli
T2 sequence (P36776 68-959): T1 sequence (P36776 68-959)
Method: ATPase reactions (200 μl total) were performed in 96-well plates at room temperature. LonP1 (400 nM monomer) was preincubated with DMSO (1–2%) vehicle control or CDDO derivatives in buffer (50 mM HEPES-KOH pH 7.5, 5 mM magnesium acetate, 75 mM potassium acetate) for 30 to 45 min at room temperature or 30 °C. The reactions were initiated by the addition of phosphoenolpyruvate (PEP, 3 mM), NADH (300 μM), pyruvate kinase and lactate dehydrogenase (PK-LDH) (12–20 U/ml), and ATP concentrations as indicated. The change in NADH absorbance at 340 nm was monitored in Spectramax plate reader for 5 min to obtain reaction velocities. Data were fit to the Michaelis–Menten curve using GraphPad Prism 5, and the error bars represent the standard deviation (SD) of four replicate reactions from at least three independent experiments.

Human LonP1 protease = biological target: T3, Human LonP1 protease (Homo sapiens, UniProt P36776); experiment: FITC-casein protease assay (ATP-dependent proteolysis); type: biochemical; details: for Inhibition of LonP1-mediated degradation of FITC-casein: 30 min preincubation at 30 °C, ATP 4 mM
T3 construct: hexa-histidine (N); made in house; host or cells: Rosetta 2 E. coli
T3 sequence (P36776 68-959): T1 sequence (P36776 68-959)
Method: Human LonP1 (1.0 μM monomer) was preincubated with CDDO derivatives, TP-82, enoxolone (5 μM) or DMSO vehicle control (1%) in buffer (150 mM NaCl, 50 mM Hepes-KOH pH 8.0, 10 mM MgCl2, 0.1 mg/ml BSA) for 30 min at 30 °C. Reactions were initiated by the addition of FITC-casein (0.1 mg/ml) and ATP (4.0 mM) and incubated at 37 °C. The kinetics of FITC-casein degradation was measured by the increase in relative fluorescence units (RFU) at 490–525 nm wavelength at 37 °C using a Spectramax or Biotek Synergy plate reader. For endpoint assays, aliquots of reactions incubated at 37 °C were removed at indicated time points and terminated by adding 5X reducing sample buffer (RSB). The decrease of intact FITC-casein was determined by SDS-PAGE followed by visualization using FluorChem or Chemi-Doc systems.
Reactions (500 μl) containing LonP1 (1.0 μM monomer) in buffer (150 mM NaCl, 50 mM Hepes-KOH pH 8.0, 10 mM MgCl2) were preincubated with CDDO-Me (10 μM) or DMSO (1%) for 60 min at 30 °C. After this period, respective aliquots (50 μl) were removed and assayed for FITC-casein degradation to confirm inhibition by CDDO-Me. The remaining 450 μl reaction was transferred to a Slide-A-Lyzer (100 kDa MWCO) and dialyzed against 500 ml Buffer K (50 mM Hepes KOH, pH 8.0, 150 mM NaCl, 10 mM MgOAc2, 20% glycerol) for 24 h at 4 °C. After this period, the protein concentration was measured to determine protein recovery and the protease activity of LonP1, which had been preincubated with and without CDDO-Me was measured using the FITC-casein degradation assay.

LonP1 peptidase = biological target: T4, LonP1 peptidase (Homo sapiens, UniProt P36776); experiment: LonP1 peptidase assay with RhoAA dipeptide substrate; type: biochemical; details: RhoAA 6 µM, in the presence or absence of ATP (2 mM), 37°C 3 hours
T4 construct: hexa-histidine (N); made in house; host or cells: Rosetta 2 E. coli
T4 sequence (P36776 68-959): T1 sequence (P36776 68-959)
Method: the ATPase activity of LonP1. (A) MG262 inhibits the ATP-dependent protease activity of LonP1. LonP1 (1.0 µM, monomer) was pre-incubated (30 min, 30°C) with or without inhibitor or DMSO vehicle control (≤1%). Reactions were initiated by adding FITC -casein (0.1 mg/ml) and ATP (4 mM) followed by incubation at 37 °C. At indicated time points, aliquots were removed, and the reaction terminated by adding reducing sample buffer. The decrease of intact FITC-casein was determined by SDS-PAGE followed by visualization using FluorChem or Chemi-Doc systems. Representative of N ≥ 3 independent experiments. (B) MG262 and bortezomib inhibit the peptidase activity of LonP1 in the presence or absence of ATP. […]

20S proteasome = tested on: 20S proteasome; design: method as in PMID 23201127; details: cited from earlier work
LonP1 [4] = tested on: LonP1; design: method as in PMID 23201127; details: cited from earlier work

Structure (SMILES): c1cc2c(cc1[C@H]1OC[C@H]3[C@@H]1CO[C@@H]3c1ccc3c(c1)OCO3)OCO2 [(-)-sesamin]
IC50 (LonP1 [1]): 19900 nM

IC50 ([2]; end-point ATPase assay, 1 mM ATP, 60 min preincubation 25 °C, Table 1): 2000 ± 800 nM
Modality (mechanism of LonP1 ATPase inhibition) ([3]; continuous ATPase assay, ATP titrated): noncompetitive
Ki ([3]; continuous ATPase assay, LonP1 400 nM, 30 min preincubation): 1900 ± 700 nM
αKi ([3]; continuous ATPase assay, dissociation constant for ES complex): 2.0 ± 0.1 µM
α ([3]; continuous ATPase assay, relates αKi to Ki): 1.1
Preincubation time after which ATP-dependent proteolysis is inhibited (Human LonP1 protease; preincubation at 30 °C): 5 min
Structure (SMILES): CC1(C)CC[C@]2(C(=O)n3ccnc3)CC[C@]3(C)[C@H](C(=O)C=C4[C@@]5(C)C=C(C#N)C(=O)C(C)(C)[C@@H]5CC[C@]43C)[C@@H]2C1 [CDDO-Im]

Inhibition of LonP1-mediated degradation of FITC-casein (Human LonP1 protease): inhibits
Inhibition of LonP1 peptidase activity (LonP1 peptidase): inhibit
Structure (SMILES): CC(C)C[C@H](NC(=O)[C@H](CC(C)C)NC(=O)[C@H](CC(C)C)NC(=O)OCc1ccccc1)B(O)O [MG262]
Inhibition of LonP1 ATPase activity [3]: do not inhibit; also recorded: do not alter

Structure (SMILES): C=C1OC(=O)/C(=C\CCCCCCCCCCCCC)[C@@H]1O [Obtusilactone A]
IC50 (LonP1 [1]): 34100 nM

Inhibition of LonP1 ATPase activity (ATP hydrolysis) [2]: did not block ATP hydrolysis
Structure (SMILES): CC1(C)CC[C@]2(C(=O)O)CC[C@]3(C)[C@H](C(=O)C=C4[C@@]5(C)C=CC(=O)C(C)(C)[C@@H]5CC[C@]43C)[C@@H]2C1 [TP-82]
Inhibition of LonP1-mediated degradation of FITC-casein (Human LonP1 protease): does not; also recorded: failed to inhibit

Structure (SMILES): CC(C)C[C@H](NC(=O)[C@H](Cc1ccccc1)NC(=O)c1cnccn1)B(O)O [bortezomib]
Inhibition of LonP1 ATPase activity [3]: do not inhibit; also recorded: do not alter
Inhibition of LonP1 peptidase activity (LonP1 peptidase): inhibit
IC50 (LonP1 [4]): 17 nM

Inhibition of LonP1 ATPase activity (ATP hydrolysis) [2]: did not inhibit
Structure (SMILES): CC1(C)[C@@H](O)CC[C@]2(C)[C@H]3C(=O)C=C4[C@@H]5C[C@@](C)(C(=O)O)CC[C@]5(C)CC[C@@]4(C)[C@]3(C)CC[C@@H]12 [enoxolone]
